Results taken from ChEMBL document CHEMBL5053560, “Nanoparticular Inhibitors of Flavivirus Proteases from Zika, West Nile and Dengue Virus Are Cell-Permeable Antivirals” (ACS Med Chem Lett, 2021).

How the values were obtained:
Genome polyprotein [1] = molecular target: T1, Genome polyprotein (West Nile virus, UniProt P06935); assay: Inhibition of C-terminal His-tagged WNV NSB2 (52 to 96 amino acids)-NS3 (1 to 184 amino acids) protease expressed in Escherichia coli BL21(DE3) using Boc-GRK-AMC as substrate measured by flourescence based plate reader assay
T1 sequence (P06935 1371-1501 limits assumed): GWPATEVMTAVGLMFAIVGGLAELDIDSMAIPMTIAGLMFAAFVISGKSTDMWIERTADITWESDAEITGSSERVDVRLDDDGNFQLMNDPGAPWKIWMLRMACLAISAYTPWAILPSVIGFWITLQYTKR
T1 sequence (P06935 1502-2120 limits assumed): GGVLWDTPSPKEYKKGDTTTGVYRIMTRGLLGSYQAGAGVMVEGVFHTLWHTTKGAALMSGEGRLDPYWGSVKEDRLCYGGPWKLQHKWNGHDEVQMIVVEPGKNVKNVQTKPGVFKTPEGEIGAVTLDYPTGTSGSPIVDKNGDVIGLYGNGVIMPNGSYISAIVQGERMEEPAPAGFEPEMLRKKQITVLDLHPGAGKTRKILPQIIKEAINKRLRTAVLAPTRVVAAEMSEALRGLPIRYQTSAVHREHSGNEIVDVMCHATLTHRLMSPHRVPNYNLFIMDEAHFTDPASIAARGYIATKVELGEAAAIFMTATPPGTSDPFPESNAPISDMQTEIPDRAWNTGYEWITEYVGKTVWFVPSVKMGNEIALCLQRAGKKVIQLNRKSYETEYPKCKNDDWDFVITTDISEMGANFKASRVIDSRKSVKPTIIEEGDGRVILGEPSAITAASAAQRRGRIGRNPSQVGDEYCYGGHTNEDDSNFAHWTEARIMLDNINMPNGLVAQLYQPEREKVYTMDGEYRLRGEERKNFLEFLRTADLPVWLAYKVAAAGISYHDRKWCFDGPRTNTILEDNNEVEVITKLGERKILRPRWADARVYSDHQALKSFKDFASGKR

Genome polyprotein [2] = molecular target: T1, Genome polyprotein; assay: Competitive inhibition of C-terminal His-tagged WNV NSB2 (52 to 96 amino acids)-NS3 (1 to 184 amino acids) protease expressed in Escherichia coli BL21(DE3) using Boc-GRK-AMC as substrate measured by flourescence based plate reader assay
Nonstructural protein 3 [3] = molecular target: T2, Nonstructural protein 3 (Zika virus, UniProt A0A024AXB9); assay: Inhibition of C-terminal His-tagged ZIKV NSB2 (52 to 96 amino acids)-NS3 (1 to 184 amino acids) protease expressed in Escherichia coli BL21(DE3) preincubated for 10 mins followed by addition of Boc-GKR-AMC substrate and measured by flourescence based plate reader assay
T2 sequence (A0A024AXB9 whole entry, the tested form may be a part): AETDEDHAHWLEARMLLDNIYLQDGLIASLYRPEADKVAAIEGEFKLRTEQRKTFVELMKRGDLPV

Nonstructural protein 3 [4] = molecular target: T2, Nonstructural protein 3; assay: Competitive inhibition of C-terminal His-tagged ZIKV NSB2 (52 to 96 amino acids)-NS3 (1 to 184 amino acids) protease expressed in Escherichia coli BL21(DE3) preincubated for 10 mins followed by addition of Boc-GKR-AMC substrate and measured by flourescence based plate reader assay
Genome polyprotein [5] = molecular target: T3, Genome polyprotein (dengue virus type 2, UniProt P29990); assay: Inhibition of recombinant N-terminal His-tagged DENV NS2B-NS3 protease expressed in Escherichia coli BL21(DE3) using Boc-GRR-AMC as substrate measured by flourescence based plate reader assay
T3 sequence (P29990 1346-1475 limits assumed): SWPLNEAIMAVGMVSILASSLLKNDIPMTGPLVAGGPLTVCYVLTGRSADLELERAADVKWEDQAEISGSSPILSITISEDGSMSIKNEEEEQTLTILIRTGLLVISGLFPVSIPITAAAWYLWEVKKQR
T3 sequence (P29990 1476-2093 limits assumed): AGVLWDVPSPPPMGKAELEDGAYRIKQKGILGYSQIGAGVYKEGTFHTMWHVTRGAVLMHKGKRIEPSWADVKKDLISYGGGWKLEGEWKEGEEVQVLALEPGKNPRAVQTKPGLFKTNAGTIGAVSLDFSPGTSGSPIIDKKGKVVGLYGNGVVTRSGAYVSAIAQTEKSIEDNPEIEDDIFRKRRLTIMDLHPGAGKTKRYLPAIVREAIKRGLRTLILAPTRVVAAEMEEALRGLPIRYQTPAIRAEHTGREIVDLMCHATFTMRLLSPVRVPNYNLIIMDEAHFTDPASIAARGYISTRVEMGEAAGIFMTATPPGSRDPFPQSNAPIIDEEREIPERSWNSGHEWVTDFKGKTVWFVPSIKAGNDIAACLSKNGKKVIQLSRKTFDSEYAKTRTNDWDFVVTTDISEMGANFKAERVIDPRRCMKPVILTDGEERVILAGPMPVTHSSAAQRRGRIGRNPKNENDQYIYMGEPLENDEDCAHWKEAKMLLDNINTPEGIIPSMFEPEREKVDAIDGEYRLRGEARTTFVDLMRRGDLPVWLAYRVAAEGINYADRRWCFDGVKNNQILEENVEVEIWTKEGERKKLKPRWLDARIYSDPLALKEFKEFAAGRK

Genome polyprotein [6] = molecular target: T3, Genome polyprotein; assay: Competitive inhibition of recombinant N-terminal His-tagged DENV NS2B-NS3 protease expressed in Escherichia coli BL21(DE3) using Boc-GRR-AMC as substrate measured by flourescence based plate reader assay
Zika virus = assay: Antiviral activity against Zika virus infected in human Huh-7 cells assessed as inhibition of viral replication at 12.5 uM measured after 48 hrs by Renilla reporter based luciferase assay relative to control; format: functional
West Nile virus = assay: Antiviral activity against West Nile virus infected in human Huh-7 cells assessed as inhibition of viral replication at 12.5 uM measured after 48 hrs by plaque assay relative to control; format: functional

Row | SMILES | IC50 (Genome polyprotein [1]) | Ki (Genome polyprotein [2]) | IC50 (Nonstructural protein 3 [3]) | Ki (Nonstructural protein 3 [4]) | IC50 (Genome polyprotein [5]) | Ki (Genome polyprotein [6]) | inhibition at 12.5 µM (Zika virus) | inhibition at 12.5 µM (West Nile virus)
1 | N=C(N)N[C@H]1CC[C@H](CNC(=O)[C@H](CCCCN)NC(=O)[C@H](CCCCN)NC(=O)Cc2ccc(OCCCCS)cc2)CC1 | 460 nM | 343 nM | 125 nM | 79 nM | 17100 nM | 12700 nM |  | 
2 | NC(=O)c1ncn([C@@H]2O[C@H](CO)[C@@H](O)[C@H]2O)n1 [RIBAVIRIN] |  |  |  |  |  |  | 80% | 90%
